Experimental data from patent US12233064B1, “Antarctic tunicate Synoicum species-derived alkaloids and methods of treatment” (University of South Florida, priority 2019, dated 2025).

Key:
[1] = system: zebrafish embryos; assay: Developmental (phenotypic) zebrafish bioassay; assay type: in vivo, Danio rerio; conditions: for Final C tested (concentration most representative of the phenotype) / MTC (Maximum Tolerated Concentration) / concentration at which interesting phenotype demonstrated: zebrafish embryos; for Final C tested (concentration most representative of the phenotype): 24 h post fertilization; for MTC (Maximum Tolerated Concentration): compound added 4 h, end 24 h post fertilization; for phenotype of treated embryos compared to control: 24h post-fertilization, FIG. 16
Protocol: Wildtype Danio rerio fish were used for the assay. Once the zebrafish eggs were collected, they were placed in fresh media along with methylene blue, to deter fungal growth. The embryos were sorted and placed in a 96-well plate and the volume was standardized. For the purpose of this screening it was determined that the optimal point to add the compounds was 4 hours post fertilization and the ending point of the assay was 24 hours post fertilization. The delay in growth and the dysmorphologies were monitored and assessed.
A developmental zebrafish assay was utilized to test the activity of the extract, the subsequent fractions, and the isolated compounds. […] The Maximum Tolerated Concentration (MTC) was determined for each compound, alongside the minimum active concentration for each compound. The final tested concentration was determined as the one most representative of the phenotype.

[2] = system: Leishmaniasis; assay: Leishmaniasis assay
[3] = system: Plasmodium falciparum; conditions: synthetic Meridianin A; cited from earlier work
[4] = system: A549 (Human lung adenocarcinoma epithelial cell line); conditions: synthetic Meridianin A; cited from earlier work

| SMILES | Final C tested (concentration most representative of the phenotype) [1] [µM] | MTC (Maximum Tolerated Concentration) [1] [µM] | result of Leishmaniasis assay [2] | growth of P. falciparum [3] | cytotoxicity to A549 [4] | phenotype of treated embryos compared to control [1] | concentration at which interesting phenotype demonstrated [1] [µM] |
| --- | --- | --- | --- | --- | --- | --- | --- |
| Nc1nccc(C2(O)C(=O)Nc3ccccc32)n1 (stereo not shown) [Australindolone A] | 300 | 1000 | – | – | – | – | – |
| Nc1nccc(-c2c[nH]c3cccc(O)c23)n1 [Meridianin A] | 30 | 100 | notable | inhibit the growth of P. falciparum | cytotoxic to A549 | – | – |
| Nc1nccc(-c2c[nH]c3cc(Br)cc(O)c23)n1 [Meridianin B] | 100 | 300 | – | – | – | – | – |
| Nc1nccc(-c2c[nH]c3ccc(Br)cc23)n1 [Meridianin C] | 3 | 10 | – | – | – | truncation of the anterior-posterior axis | 3 |
| Nc1nccc(-c2c[nH]c3cc(Br)ccc23)n1 [Meridianin D] | 65 | 100 | – | – | – | – | – |
| Nc1nccc(-c2c[nH]c3c(Br)ccc(O)c23)n1 [Meridianin E] | 10 | 100 | – | – | – | – | – |
| Nc1nccc(-c2c[nH]c3cc(Br)c(Br)cc23)n1 [Meridianin F] | 2 | 10 | – | – | – | truncation of the anterior-posterior axis | 2 |
| Nc1nccc(-c2c[nH]c3ccccc23)n1 [Meridianin G] | 100 | 300 | – | – | – | – | – |
| Nc1nccc(-c2c[nH]c3c(Br)cc(Br)c(O)c23)n1 [Meridianin H] | 60 | 100 | – | – | – | – | – |
